Test results: patent publication US20130165771A1 (priority 2011, published 2013)

Tests used:
[1] = test system: eye with CNV complicated with proliferated retinopathy and atrophy of choroidal circulation; assay: Comparison of Na-fluorescein, ICG and FITC-dextran fundus angiography on the eye with proliferative CNV (Example 9, Table 1); format: in vivo, rabbit; settings: for morphological detail of the CNV, proliferated retinopathy and atrophy of choroidal circulation on the angiogram: Dutch-belted rabbit, same eye, Na-fluorescein 5 mg/kg, ICG 2.5 mg/kg, FITC-dextran 70 kDa 2.5 mg/kg i.v.; for Clarity of angiography / Duration: Choroidal neovascularization / Duration: Normal Choroidal vasculatures / Neovascularization complex / Duration: Retinal neovascularization / Duration: Normal retinal vessels: Table 1
Description: Materials and Methods: the choroidal neovascularization in the eye of Dutch-belted rabbit was induced by sub-retinal injection of vascular growth factors (VGF). The proliferated retinopathy of the choroidal neovascularization membrane and the atrophy of choroidal circulation were the complications of the CNV, occurring at the late stage of the disease. […] The fundus angiograms of IGC were obtained using the fundus image system (Topcon 50 VT) at wavelength of 800 nm.

serum proteins = settings: in the blood stream; cited from earlier work
[2] = test system: retinal pigmental endothelial cells; settings: reported (Kodjikian, et al, 2005; Giuseppe, et al, 2008); cited from earlier work
[3] = test system: eyes with choroidal neovascularization (CNV); assay: Comparison of FITC-dextran with Na-fluorescein fundus angiography on eyes with CNV (Example 6); format: in vivo; settings: rabbit CNV; Na-fluorescein 5 mg/kg i.v.; FITC-dextran 70 kDa 2.5 mg/kg i.v.
Description: Materials and Methods: The choroidal neovascularization (CNV) in rabbit eye was induced by sub-retinal injection of vascular growth factors (VGF).

[4] = test system: eye with choroidal neovascularization complicated with retinal detachment; assay: Comparison on the eye with CNV complicated with retinal detachment (Example 7); format: in vivo; settings: rabbit; Na-fluorescein 5 mg/kg i.v.; FITC-dextran 70 kDa 2.5 mg/kg i.v.; same rabbit
Experimental: Materials and Methods: the choroidal neovascularization in the eye of rabbit was induced by sub-retinal injection of vascular growth factors (VGF). The complicated retinal detachment in the eye was caused by leakage of blood from the choroidal newly grown blood vessels and accumulated in the space of the sub-retinal between the detached retinal and the pigmented layer. […] The Na-fluorescence fundus angiography and the FITC-dextran fundus angiography were performed on the same rabbit with one-day interval between these two fundus angiographies.

[5] = test system: eye with choroidal neovascularization complicated with sub-retinal hemorrhage; assay: Comparison on the eye with CNV complicated with sub-retinal hemorrhage (Example 8); format: in vivo; settings: rabbit; Na-fluorescein 5 mg/kg i.v.; FITC-dextran 70 kDa 2.5 mg/kg i.v.; same rabbit
Experimental: Materials and Methods: the choroidal neovascularization in the rabbit eye was induced by sub-retinal injection of vascular growth factors (VGF). The sub-retinal hemorrhage was caused by the pathological changes of the newly grown blood vessels underneath of the retinal. […] The Na-fluorescence fundus angiography and the FITC-dextran fundus angiography, were performed on the same rabbit with one-day interval between these two fundus angiographies.

fundus = settings: following intravenous injection of the dye; clinical practice; cited from earlier work
[6] = test system: eye with retinal neovascularization; assay: Comparison of FITC-dextran with Na-fluorescein fundus angiography on the eye with retinal neovascularization (Example 10); settings: monkey eye with retinal neovascularization; following injection of the dye
Experimental: Materials and Methods: Retinal neovascularization in the eye of the monkey was induced by sub-retinal administration of vascular growth factors (VGF). For Na-fluorescence fundus angiography, the 0.5% of Na-fluorescein solution was injected through the antecubital vein at the dose of 5 mg/kg of the body weight. […] The fundus angiograms were obtained using a regular fluorescence fundus system (Topcon 50 VT).

[7] = test system: retinal vasculature and choroidal vasculature; assay: FITC-dextran fundus angiography in normal rabbit eyes (Example 1); format: in vivo; settings: naive rabbit; FITC-dextran 70 kDa, 25 mg/ml, 0.3 ml intravenously
Description: Materials and Methods: The naive rabbits with bodyweight of 1.8-2.5 kilograms were used for this test.

choroidal vasculature = assay: Effective image duration of FITC-dextran fundus angiography in rabbit (Example 2); format: in vivo; settings: Dutch Belted rabbit, single intravenous injection of FITC-dextran 70 kDa, 25 mg/ml, 0.3 ml
Experimental: The volume of 0.3 ml of the solution was injected through the marginal vein of a Dutch Belted rabbit. […] The angiograms of choroidal vasculature were captured using a regular fluorescence fundus image system (Topcon 50 VT).

[8] = test system: eye with retinal detachment; assay: FITC-dextran fundus angiography in the eye with retinal detachment (Example 3); format: in vivo; settings: pigmented rabbit; detachment induced by sub-retinal Healon; FITC-dextran 70 kDa, 25 mg/ml, 0.3 ml i.v.
Experimental: Materials and Methods: The retinal detachment was induced by sub-retinal injection of Healon in the eye of pigmented rabbit. […] The volume of 0.3 ml of the solution was injected intravenously through the marginal vein of the rabbit.

[9] = test system: eye with choroidal neovascularization (CNV); assay: FITC-dextran fundus angiography on the eye with choroidal neovascularization (Example 4); format: in vivo; settings: pigmented rabbit; CNV induced by sub-retinal vascular growth factors; FITC-dextran 70 kDa, 25 mg/ml, 0.3 ml i.v.
Experimental: Materials and Methods: The choroidal neovascularization (CNV) was induced by sub-retinal injection of vascular growth factors in the eye of pigmented rabbit. […] The volume of 0.3 ml of the solution was injected through marginal vein of the rabbit.

Compound | morphological detail of the CNV, proliferated retinopathy and atrophy of choroidal circulation on the angiogram [1] | Clarity of angiography [1] | Duration: Choroidal neovascularization [1] [min] | Duration: Normal Choroidal vasculatures [1] [min] | Neovascularization complex [1] | molecules bound to serum proteins (serum proteins) | toxic effects on retinal pigmental endothelial cells and outer portion of the retinal tissues [2] | morphological detail of the CNV on the angiogram [3] | morphological detail of the CNV and the retinal detachment on the angiogram [4] | morphological detail of the CNV and the hemorrhage on the angiogram [5] | Duration: Retinal neovascularization ([1]; then leak out) [s] | Duration: Normal retinal vessels ([1]; then watch out) | best effective image duration (fundus) | effective image duration [6] | visualization of retinal vasculature and choroidal vasculature in a same fundus angiogram [7] | effective image duration (choroidal vasculature) | quality of angiograms of the eye with retinal detachment [8] | visualization of new blood vessels grown from choroidal [9] | Duration: Normal retinal vessels [1] [h] | Duration: Retinal neovascularization [1] [s]
CC1(C)C(/C=C/C=C/C=C/C=C2\N(CCCCS(=O)(=O)O)c3ccc4ccccc4c3C2(C)C)=[N+](CCCCS(=O)(=O)[O-])c2ccc3ccccc3c21 [ICG, indocyanine green] | able to visualize the structure of the CNV and the injured choroidal vascular networks | poor | 3 to 5 | 3 to 5 | good | 98% | toxic effects | – | – | – | – | – | – | – | – | – | – | – | – | –
O=C([O-])c1ccccc1-c1c2ccc(=O)cc-2oc2cc([O-])ccc12.[Na+].[Na+] [Na-Fluorescein, sodium fluorescein] | without morphological details of the CNV | good | – | – | poor | 70-80% | – | without the morphological detail of the CNV | without the morphological details of the CNV and the detachment | without the morphological details of the CNV and the hemorrhage | ≤ 10 | 2-5 minutes, | about 5 minutes | about two | – | – | – | – | – | –
fluorescein isothiocyanate dextran [FITC-Dextran] | able to visualize the newly grown blood vessels with details of the CNV | best | >60 | >60 | best | – | – | detailed morphological information of the newly grown vasculature was revealed | the morphological nature of the newly grown vasculature and the detachment of the retina were visualized | able to provide the morphological nature of the newly grown vasculature complicated with retinal hemorrhage | – | – | – | – | able to visualize both retinal vasculature and choroidal vasculature | up to 2 hours | super clear and high resolution angiograms | able to visualize the new blood vessels grown from choroidal | >1 | >3600
